Measurements published in article PMC10081574, “Evaluation of Antiviral Activity of Gemcitabine Derivatives against Influenza Virus and Severe Acute Respiratory Syndrome Coronavirus 2” (ACS Infectious Diseases, 2023).
Read-outs that look alike come from different tables or passages of the source.

Assays:
A/Hong Kong/8/68 (H3N2) [1] = test: microbe, parasite or virus in culture; conditions: Influenza A virus, H3N2, MDCK, 72 h; for EC50: read-out: EC50 HK; for EC90: read-out: EC90 HK
MDCK cells [2] = test: Cytotoxicity to mock-infected MDCK cells (MTT); conditions: mock-infected MDCK cells, day 3, MTT; concentration inhibiting cell viability by 10%
[3] = Cytotoxicity to mock-infected MDCK cells (MTT); conditions: dog, mock-infected MDCK cells
A/Hong Kong/8/68 (H3N2) [4] = conditions: for SI50 HK: ratio of CC50 to EC50; for SI90 HK: ratio of CC10 to EC90
[5] = tested on: influenza A and B viruses; test: CPE reduction antiviral assay, values summarised over influenza strains PR8, HK and Lee; type: cell-based, influenza virus
[6] = tested on: A/Puerto Rico/8/34 (H1N1); test: microbe, parasite or virus in culture; conditions: Influenza A virus, 72 h; for EC50 / EC90: H1N1 / PR8, MDCK; for EC50: read-out: EC50 PR8; for EC90: read-out: EC90 PR8
B/Lee/40 = test: CPE reduction antiviral assay in Lee-infected MDCK cells (MTT); type: cell-based, influenza B virus; conditions: for EC50 / EC90: Influenza B virus, 72 h; for EC50: viability of infected cells to 50%; for SI50 Lee: ratio of CC50 to EC50; for EC90: read-out: EC90 Lee; for SI90 Lee: ratio of CC10 to EC90
[7] = tested on: A/Puerto Rico/8/34 (H1N1); conditions: for SI90 PR8: ratio of CC10 to EC90; for SI50 PR8: ratio of CC50 to EC50
MDCK cells [8] = tested on: MDCK cells
in vitro [9] = conditions: dog
PR8 virus [10] = type: cell-based, influenza A virus
physchem = conditions: aqueous buffer
PR8 virus [11] = type: cell-based, influenza A virus; remark: listed apart in the source
[12] = biological target: polymerase activity of influenza A virus PR8 (Influenza A virus, UniProt P03431); type: cell-based; conditions: 11, 33 and 100 μM, 72 h time course
in vitro [13] = conditions: human
Calu-3 cells = test: Cytotoxicity to mock-infected Calu-3 cells (MTT); conditions: 100 μM
[14] = mouse, microsomes
SARS-CoV-2 = test: Anti-SARS-CoV-2 immunofluorescence assay (anti-S) in Calu-3 cells; type: cell-based; conditions: for SI SARS-CoV-2: ratio of CC50 to EC50
[15] = male, BALB/c, mouse, in vivo, ip, 5 mg/kg, 30 min
[16] = over PR8, HK and Lee, CC10/EC90
[17] = MDCK, MDCK, MOI 0.001, day 3, read-out: EC50 Lee
[18] = MDCK, read-out: EC50 Lee, MDCK, MOI 0.001, day 3
[19] = Influenza A virus, PR8, MDCK, span over PR8, HK and Lee, MDCK, read-out: EC90 against influenza viruses
[20] = span over PR8, HK and Lee, MDCK, read-out: EC90 against influenza viruses
[21] = MDCK, MOI 0.001, day 3, viability of infected cells to 90%

Compound	EC50 (A/Hong Kong/8/68 (H3N2) [1]) [µM]	SI50 HK (A/Hong Kong/8/68 (H3N2) [4])	SI90 against influenza viruses [5, 16]	EC50 [6] [µM]	EC90 [6] [µM]	EC90 (A/Hong Kong/8/68 (H3N2) [1]) [µM]	EC50 (B/Lee/40; [17]) [µM]	SI50 Lee (B/Lee/40)	SI90 PR8 [7]	SI50 PR8 [7]	CC10 (MDCK cells [8]; dog, 3 days) [µM]	CC50 at 3 days (in vitro [9]) [µM]	SI90 HK (A/Hong Kong/8/68 (H3N2) [4])	EC50 (B/Lee/40; [18]) [µM]	EC90 [5, 19] [µM]	EC90 (B/Lee/40; MDCK) [µM]	SI90 Lee (B/Lee/40)	further results
NC12CC3CC(CC(C3)C1)C2 [Amantadine, reference compound]	15.4 ± 5.1	> 19.5																CC10 (MDCK cells [2]): 91.0 ± 34.5 µM; CC50 at 3 days [3]: > 300 µM
Cc1cccnc1C(=O)Nc1ccn([C@@H]2O[C@H](CO)[C@@H](O)C2(F)F)c(=O)n1 [Compound 2c]	26.8	> 11.2	> 1.4	32.8 ± 5.8	114 ± 24.7	41.2 ± 0.5	26.2 ± 2	> 11.5	> 2.6	> 9.2	>300.0	> 300	> 7.3					
O=C(Nc1ccn([C@@H]2O[C@H](CO)[C@@H](O)C2(F)F)c(=O)n1)c1ccc(-c2ccccc2)cn1 [Compound 2d]	50.2 ± 3.4	> 6.0	> 1.4	46.1 ± 3	119 ± 66.2	219 ± 36.3		> 7.7		> 6.5	>300.0	> 300	> 1.4	39.1 ± 3.2				
O=C(Nc1ccn([C@@H]2O[C@H](CO)[C@@H](O)C2(F)F)c(=O)n1)c1cccc(-c2ccccc2)n1 [Compound 2e]	5 ± 0.1		> 8.7	4.1 ± 0.4	16.6 ± 8.6	14.5 ± 0.4		> 88.5	> 18.1	> 73.3		> 300	> 20.7	3.39 ± 0.1	10.7 to 34.3	34.3 ± 4.3	> 8.7	reduction of viral RNA copies (PR8 virus [10]): in a dose-dependent manner; EC90 [5, 20]: 14.5 to 34.3 µM; solubility (physchem): < 500 µg/mL; reduction of viral NP protein expression (PR8 virus [11]): in a dose-dependent manner; inhibition of viral polymerase activity (EGFP expression) [12]: Inhibition of influenza A viral polymerase activity; viability at 3 days, 300 µM (in vitro [9]): > 90%
COc1ccc(C(=O)Nc2ccn([C@@H]3O[C@H](CO)[C@@H](O)C3(F)F)c(=O)n2)nc1 [Compound 2g]	18.6 ± 0.1	> 16.1	> 1.4	28.5 ± 4.2	68.8 ± 22.7	32.3 ± 0.7	13.3 ± 2.7	> 22.6	> 4.4	> 10.5	>300.0	> 300	> 9.3				> 3.1	EC90 (B/Lee/40; [21]): 98.1 ± 16.7 µM
Nc1ccc(C(=O)Nc2ccn([C@@H]3O[C@H](CO)[C@@H](O)C3(F)F)c(=O)n2)nc1 [Compound 2h]	5 ± 0.3	> 59.5	> 8.7	6.4 ± 0.6	12.2 ± 1	11.4 ± 0.6	4.1 ± 0.4	> 73.1	> 24.5	> 47.2		> 300	> 26.3		10.7 to 34.3		> 18.8	reduction of viral RNA copies (PR8 virus [10]): in a dose-dependent manner; CC50 at 2 days (in vitro [13]): > 100 µM; EC90 [5, 20]: 11.4 to 15.9 µM; solubility (physchem): ≥ 2000 µg/mL; cell death (Calu-3 cells): about 20%; stability in a microsomal condition in vitro [14]: much more stable; reduction of viral NP protein expression (PR8 virus [11]): in a dose-dependent manner; EC90 (B/Lee/40; [21]): 15.9 ± 1.7 µM; reduction of the viral S protein (immunofluorescence) (SARS-CoV-2; 1.2, 3.7, 11.1 and 33.3 μM, 2 days): in a dose-dependent manner; EC50 (SARS-CoV-2; Severe acute respiratory syndrome coronavirus 2, 48 h, Calu-3, MOI 0.05, 2 days): 0.46 µM; SI SARS-CoV-2 (SARS-CoV-2): > 217.4; share of 2h converted to gemcitabine [15]: 17.5%; inhibition of viral polymerase activity (EGFP expression) [12]: potently inhibited viral polymerase activity in a dose-dependent manner; reduction of cytotoxicity relative to gemcitabine (MDCK cells [8]; dog, 3 days): over 60 fold; viability at 3 days, 300 µM (in vitro [9]): > 90%
O=C(Nc1ccn([C@@H]2O[C@H](CO)[C@@H](O)C2(F)F)c(=O)n1)c1ccc([N+](=O)[O-])cn1 [Compound 2i]	0.6 ± 0.1	> 518.5	> 1.4	1.1	2.2 ± 0.2	1.1		> 464.8	8.1		17.9 ± 6.7	> 300	15.7	0.7		1.6 ± 0.1	11.0	
O=C(Nc1ccn([C@@H]2O[C@H](CO)[C@@H](O)C2(F)F)c(=O)n1)c1cccnc1 [Compound 3a]	6.2 ± 1.1	> 48.4		5.8 ± 0.9	16.9 ± 7.2	10.6 ± 0.8	3.1 ± 0.5	> 95.7	2.7	> 52.1		> 300	4.2		1.4 to 16.9			EC90 ([5]; Influenza A virus, PR8, PR8 and HK only, read-out: EC90 against influenza A viruses): 10.6 to 16.9 µM; EC50 ([5]; Influenza A virus, span over PR8, HK and Lee, MDCK, read-out: EC50 against influenza viruses): 3.1 to 6.2 µM; SI90 against influenza A viruses ([5]; PR8 and HK only, CC10/EC90): 2.7–4.2; concentration of maximal antiviral efficacy ([5]; dose-response, MDCK): ~33 µM; SI50 against influenza viruses ([5]; over PR8, HK and Lee, CC50/EC50): > 48.4; viability at 10 µM ([6]; H1N1|PR8, MDCK, read-out: viability of PR8-infected cells in library screening): > 50%; viability at 10 µM (A/Hong Kong/8/68 (H3N2) [1]; read-out: viability of HK-infected cells in library screening): > 50%; activity against influenza B virus by EC90/SI90 criteria (B/Lee/40; MDCK, 90% viability criteria): not against influenza B virus; reduction of cytotoxicity relative to gemcitabine (MDCK cells [8]): ninefold
CCC(CC)COC(=O)[C@H](C)N[P@](=O)(OC[C@H]1O[C@@](C#N)(c2ccc3c(N)ncnn23)[C@H](O)[C@@H]1O)Oc1ccccc1 [Remdesivir, reference compound]																		SI SARS-CoV-2 (SARS-CoV-2): > 129.0
NC(=O)c1ncn([C@@H]2O[C@H](CO)[C@@H](O)[C@H]2O)n1 [Ribavirin, reference compound]	20.4			20.1	79.4	59.5								11.1 ± 0.1		141 ± 18.3		CC50 at 3 days [3]: > 300 µM
